Measured values reported in PubChem BioAssay (NCI).
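Test compounds were applied to cells in 96-well plates for 48 hours at 5 doses. Abbreviation: GI50, concentration required for 50% inhibition of growth. TGI is the concentration that stops growth completely.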

Columns and labels:
Test in all cases: DTP human tumour cell line panel, 48 h
OVCAR-5 ovarian = test system: OVCAR-5 ovarian
CAKI-1 renal = test system: CAKI-1 renal
MALME-3M melanoma = test system: MALME-3M melanoma
SN12C renal = test system: SN12C renal
U251 CNS = test system: U251 CNS
HL-60(TB) leukemia = test system: HL-60(TB) leukemia
M14 melanoma = test system: M14 melanoma
NCI/ADR-RES ovarian = test system: NCI/ADR-RES ovarian
MCF7 breast = test system: MCF7 breast
MDA-MB-231 breast = test system: MDA-MB-231 breast
SNB-19 CNS = test system: SNB-19 CNS
RPMI-8226 leukemia = test system: RPMI-8226 leukemia
MDA-MB-435 = test system: MDA-MB-435
NCI-H460 lung = test system: NCI-H460 lung
OVCAR-4 ovarian = test system: OVCAR-4 ovarian
HCT-15 colon = test system: HCT-15 colon
HCT-116 colon = test system: HCT-116 colon
PC-3 prostate = test system: PC-3 prostate
NCI-H226 lung = test system: NCI-H226 lung
OVCAR-3 ovarian = test system: OVCAR-3 ovarian
SF-268 CNS = test system: SF-268 CNS
UACC-62 melanoma = test system: UACC-62 melanoma
NCI-H522 lung = test system: NCI-H522 lung
ACHN renal = test system: ACHN renal
SK-MEL-2 melanoma = test system: SK-MEL-2 melanoma
SNB-75 CNS = test system: SNB-75 CNS
SW-620 colon = test system: SW-620 colon
RXF 393 renal = test system: RXF 393 renal
A498 renal = test system: A498 renal
786-0 renal = test system: 786-0 renal
BT-549 breast = test system: BT-549 breast
SK-MEL-5 melanoma = test system: SK-MEL-5 melanoma
LOX IMVI melanoma = test system: LOX IMVI melanoma
OVCAR-8 ovarian = test system: OVCAR-8 ovarian
HT29 colon = test system: HT29 colon
A549 NSCLC = test system: A549 NSCLC
T-47D breast = test system: T-47D breast
SF-295 CNS = test system: SF-295 CNS
TK-10 renal = test system: TK-10 renal
NCI-H23 lung = test system: NCI-H23 lung
CCRF-CEM leukemia = test system: CCRF-CEM leukemia
COLO 205 colon = test system: COLO 205 colon
K-562 leukemia = test system: K-562 leukemia
UACC-257 melanoma = test system: UACC-257 melanoma
SK-OV-3 ovarian = test system: SK-OV-3 ovarian
HOP-62 NSCLC = test system: HOP-62 NSCLC
HCC-2998 colon = test system: HCC-2998 colon
HOP-92 NSCLC = test system: HOP-92 NSCLC
DU-145 prostate = test system: DU-145 prostate
SK-MEL-28 melanoma = test system: SK-MEL-28 melanoma
IGROV1 ovarian = test system: IGROV1 ovarian
UO-31 renal = test system: UO-31 renal
KM12 colon = test system: KM12 colon
SR leukemia = test system: SR leukemia
MOLT-4 leukemia = test system: MOLT-4 leukemia
SF-539 CNS = test system: SF-539 CNS
EKVX NSCLC = test system: EKVX NSCLC
HS 578T breast = test system: HS 578T breast

C=C(C)[C@@H]1CC[C@]2(CNCCO)CC[C@]3(C)[C@H](CC[C@@H]4[C@@]5(C)CCC(N)[C@@](C)(CO)[C@@H]5CC[C@]43C)[C@@H]12 (some centres undefined)
GI50 (OVCAR-5 ovarian): 2.3 µM | TGI (OVCAR-5 ovarian): 4.79 µM | GI50 (CAKI-1 renal): 2.85 µM | TGI (CAKI-1 renal): 7.82 µM | GI50 (MALME-3M melanoma): 1.8 µM | TGI (MALME-3M melanoma): 3.31 µM | GI50 (SN12C renal): 1.75 µM | TGI (SN12C renal): 3.41 µM | GI50 (U251 CNS): 1.69 µM | TGI (U251 CNS): 3.16 µM | GI50 (HL-60(TB) leukemia): 1.33 µM | TGI (HL-60(TB) leukemia): 3.46 µM | GI50 (M14 melanoma): 1.75 µM | TGI (M14 melanoma): 3.31 µM | GI50 (NCI/ADR-RES ovarian): 12.9 µM | TGI (NCI/ADR-RES ovarian): 26.7 µM | GI50 (MCF7 breast): 1.6 µM | TGI (MCF7 breast): 3.17 µM | GI50 (MDA-MB-231 breast): 1.86 µM | TGI (MDA-MB-231 breast): 3.44 µM | GI50 (SNB-19 CNS): 1.83 µM | TGI (SNB-19 CNS): 3.36 µM | GI50 (RPMI-8226 leukemia): 1.65 µM | TGI (RPMI-8226 leukemia): 3.91 µM | GI50 (MDA-MB-435): 1.75 µM | TGI (MDA-MB-435): 3.25 µM | GI50 (NCI-H460 lung): 1.77 µM | TGI (NCI-H460 lung): 3.36 µM | GI50 (OVCAR-4 ovarian): 1.9 µM | TGI (OVCAR-4 ovarian): 3.99 µM | GI50 (HCT-15 colon): 1.8 µM | TGI (HCT-15 colon): 3.57 µM | GI50 (HCT-116 colon): 1.55 µM | TGI (HCT-116 colon): 2.96 µM | GI50 (PC-3 prostate): 1.73 µM | TGI (PC-3 prostate): 3.62 µM | GI50 (NCI-H226 lung): 2.13 µM | TGI (NCI-H226 lung): 5.48 µM | GI50 (OVCAR-3 ovarian): 1.75 µM | TGI (OVCAR-3 ovarian): 3.29 µM | GI50 (SF-268 CNS): 1.75 µM | TGI (SF-268 CNS): 3.46 µM | GI50 (UACC-62 melanoma): 1.77 µM | TGI (UACC-62 melanoma): 3.19 µM | GI50 (NCI-H522 lung): 1.95 µM | TGI (NCI-H522 lung): 3.69 µM | GI50 (ACHN renal): 1.99 µM | TGI (ACHN renal): 3.61 µM | GI50 (SK-MEL-2 melanoma): 1.77 µM | TGI (SK-MEL-2 melanoma): 3.27 µM | GI50 (SNB-75 CNS): 1.58 µM | TGI (SNB-75 CNS): 3.1 µM | GI50 (SW-620 colon): 1.93 µM | TGI (SW-620 colon): 3.88 µM | GI50 (RXF 393 renal): 1.29 µM | TGI (RXF 393 renal): 2.62 µM | GI50 (A498 renal): 1.36 µM | TGI (A498 renal): 2.85 µM | GI50 (786-0 renal): 1.68 µM | TGI (786-0 renal): 3.11 µM | GI50 (BT-549 breast): 1.74 µM | TGI (BT-549 breast): 3.33 µM | GI50 (SK-MEL-5 melanoma): 1.74 µM | TGI (SK-MEL-5 melanoma): 3.14 µM | GI50 (LOX IMVI melanoma): 1.64 µM | TGI (LOX IMVI melanoma): 3.1 µM | GI50 (OVCAR-8 ovarian): 1.76 µM | TGI (OVCAR-8 ovarian): 3.39 µM | GI50 (HT29 colon): 1.46 µM | TGI (HT29 colon): 3.18 µM | GI50 (A549 NSCLC): 1.8 µM | TGI (A549 NSCLC): 3.38 µM | GI50 (T-47D breast): 2.07 µM | TGI (T-47D breast): 3.97 µM | GI50 (SF-295 CNS): 1.76 µM | TGI (SF-295 CNS): 3.33 µM | GI50 (TK-10 renal): 1.74 µM | TGI (TK-10 renal): 3.2 µM | GI50 (NCI-H23 lung): 2.14 µM | TGI (NCI-H23 lung): 3.95 µM | GI50 (CCRF-CEM leukemia): 2.17 µM | TGI (CCRF-CEM leukemia): 5.3 µM | GI50 (COLO 205 colon): 1.59 µM | TGI (COLO 205 colon): 3.08 µM | GI50 (K-562 leukemia): 1.5 µM | TGI (K-562 leukemia): 3.7 µM | GI50 (UACC-257 melanoma): 1.85 µM | TGI (UACC-257 melanoma): 3.39 µM | GI50 (SK-OV-3 ovarian): 1.95 µM | TGI (SK-OV-3 ovarian): 3.41 µM | GI50 (HOP-62 NSCLC): 1.79 µM | TGI (HOP-62 NSCLC): 3.28 µM | GI50 (HCC-2998 colon): 1.83 µM | TGI (HCC-2998 colon): 3.35 µM | GI50 (HOP-92 NSCLC): 1.43 µM | TGI (HOP-92 NSCLC): 2.94 µM | GI50 (DU-145 prostate): 1.65 µM | TGI (DU-145 prostate): 3.18 µM | GI50 (SK-MEL-28 melanoma): 1.84 µM | TGI (SK-MEL-28 melanoma): 3.38 µM | GI50 (IGROV1 ovarian): 1.98 µM | TGI (IGROV1 ovarian): 4.09 µM | GI50 (UO-31 renal): 1.65 µM | TGI (UO-31 renal): 3.07 µM | GI50 (KM12 colon): 1.71 µM | TGI (KM12 colon): 3.21 µM | GI50 (SR leukemia): 1.68 µM | TGI (SR leukemia): 4.08 µM | GI50 (MOLT-4 leukemia): 1.56 µM | TGI (MOLT-4 leukemia): 3.85 µM | GI50 (SF-539 CNS): 1.77 µM | TGI (SF-539 CNS): 3.27 µM | GI50 (EKVX NSCLC): 1.75 µM | TGI (EKVX NSCLC): 3.38 µM

Cc1ncc([N+](=O)[O-])n1CC(O)Cn1ccnc1[N+](=O)[O-] (centres undefined)
TGI (OVCAR-5 ovarian): > 100 µM | TGI (MALME-3M melanoma): > 100 µM | TGI (SN12C renal): > 100 µM | TGI (U251 CNS): > 100 µM | TGI (HL-60(TB) leukemia): > 100 µM | TGI (MCF7 breast): > 100 µM | TGI (RPMI-8226 leukemia): > 100 µM | TGI (NCI-H460 lung): > 100 µM | TGI (HCT-15 colon): > 100 µM | TGI (HCT-116 colon): > 100 µM | TGI (PC-3 prostate): > 100 µM | TGI (NCI-H226 lung): > 100 µM | TGI (OVCAR-3 ovarian): > 100 µM | TGI (SF-268 CNS): > 100 µM | TGI (NCI-H522 lung): > 100 µM | TGI (ACHN renal): > 100 µM | TGI (SK-MEL-2 melanoma): > 100 µM | TGI (SNB-75 CNS): > 100 µM | TGI (SW-620 colon): > 100 µM | TGI (A498 renal): > 100 µM | TGI (786-0 renal): > 100 µM | TGI (SK-MEL-5 melanoma): > 100 µM | TGI (OVCAR-8 ovarian): > 100 µM | TGI (HT29 colon): > 100 µM | TGI (A549 NSCLC): > 100 µM | TGI (SF-295 CNS): > 100 µM | TGI (TK-10 renal): > 100 µM | TGI (NCI-H23 lung): > 100 µM | TGI (CCRF-CEM leukemia): > 100 µM | TGI (K-562 leukemia): > 100 µM | TGI (HS 578T breast): > 100 µM | TGI (UACC-257 melanoma): > 100 µM | TGI (HOP-62 NSCLC): > 100 µM | TGI (HCC-2998 colon): > 100 µM | TGI (SK-MEL-28 melanoma): > 100 µM | TGI (KM12 colon): > 100 µM | TGI (SR leukemia): > 100 µM | TGI (MOLT-4 leukemia): > 100 µM | TGI (SF-539 CNS): > 100 µM | TGI (EKVX NSCLC): > 100 µM
